Experimental data reported in paper PMC7527546 (Current Radiopharmaceuticals, 2020).
Where two headings read alike, the source gives them in different places.

Legend:
[1] = system: athymic mice bearing human prostate C4-2 cancer xenografts; format: in vivo; conditions: for 224Ra %ID/g: 224Ra measured 2 h after i.v. injection of the named 224Ra-solution; for %ID/g of 212Pb without 212Pb ingrowth from 224Ra: 2 h after i.v. injection of the 224Ra-solution
[2] = in mice; cited from earlier work
[3] = in man; cited from earlier work

NC(=O)CN1CCN(CC(N)=O)CCN(CC(N)=O)C(Cc2ccc(NC(=S)NCC3CCC(C(=O)NC(Cc4ccc5ccccc5c4)C(=O)NCCCCC(NC(=O)NC(CCC(=O)O)C(=O)O)C(=O)O)CC3)cc2)CN(CC(N)=O)CC1 (centres unmarked) [NG001, p-SCN-Bn-TCMC-PSMA ligand]
lower kidney uptake compared with [212Pb]Pb-PSMA-617 ([1]; 2 h after injection): 3.5 fold

[Ra] [radium]
renal clearance of radium [2]: about 70%
radium excreted by intestinal clearance [3]: more than 90%

[Cl][212Pb][Cl] [[212Pb]PbCl2]
tumour-to-kidney ratio ([1]; 2 h after i.v. injection of the 224Ra-solutions): 0.04
224Ra %ID/g ([1]; Femur): 19.40±1.97 %ID/g
%ID/g of 212Pb without 212Pb ingrowth from 224Ra ([1]; Kidneys): 48.47±7.57 %ID/g
224Ra %ID/g ([1]; Skull): 19.62±1.28 %ID/g
%ID/g of 212Pb without 212Pb ingrowth from 224Ra ([1]; Tumour (C4-2 xenograft)): 1.71±1.29 %ID/g
